Tests used:
[1] = tested on: stratum corneum moisture content of the skin (forearm); assay: Evaluation test of moisture retention effect upon single application (esterified products, oils, glycerol applied neat); format: in vivo, human; settings: 60 minutes after application, glycerol still applied to the skin surface, prior to removal using water
[2] = tested on: stratum corneum moisture content of the skin (forearm); assay: as above; format: in vivo, human
Method: In the present invention, the moisture retention effect of the esterified product, namely the improvement effect on the moisture retention function of the skin, was evaluated based on the change in the stratum corneum moisture content of the skin before and after application of the esterified product. Measurement of the stratum corneum moisture content was performed using a stratum corneum moisture content measuring device (device name: SKICON-200), manufactured by IBS Co., Ltd. This stratum corneum moisture content measuring device is a device that is widely used for measuring the moisturestate of the stratum corneum, and is a device that measures the electrical conductivity (μS) of the stratum corneum. The larger the skin moisture content, the higher the electrical conductivity of the stratum corneum becomes. Accordingly, the electrical conductivity (μS) measured using the stratum corneum moisture content measuring device was deemed to indicate the stratum corneum moisture content. The skin moisture retention effect of each test sample was evaluated by applying the test sample directly to washed skin, and then measuring the change in the skin stratum corneum moisture content after wiping the test sample off the skin using a cotton swab soaked in hexane. The skin stratum corneum moisture content measurement test was conducted on a plurality of panelists in the season from autumn to spring when the skin is prone to dryness. Further, in order to remove the effects of room temperature and humidity on the measurement results, the tests were performed in a room in which the room temperature had been adjusted to 18 to 22° C. and the humidity had been adjusted to 40 to 55% RH. Specifically, first, the forearm of the person was washed with soap, and the person was then held for 30 minutes in a room in which the room temperature and the humidity had been controlled within the above ranges to acclimatize the skin of the forearm to the measurement environment, thus completing preparations for the initial conditions for measurement. […] Subsequently, 40 μL of the test sample being evaluated was applied uniformly to the square measurement region of the forearm. Sixty minutes after the application, a cotton swab that had been immersed in hexane was used to wipe off the test sample, and 30 minutes after the test sample had been wiped off, the stratum corneum moisture content of the wiped region of the skin (the stratum corneum moisture content upon test completion) was measured. Further, when evaluating the moisture retention effect of the test sample, in order to consider and subtract the change in the state of the skin during the measurement period, the stratum corneum moisture content of a portion of the skin to which the sample had not been applied was also measured prior to test commencement and upon test completion, and the change in the stratum corneum moisture content of this uncoated portion was calculated. A moisture retention effect value (μS) was determined from the measured values for the skin stratum corneum moisture content based on the formulas below. The moisture retention effect value (μS) for each test sample was calculated as the average value for the moisture retention effect values (μS) across five panelists. […] Based on the moisture retention effect value (μS) for each test sample, the moisture retention effect of each test sample was evaluated using the criteria in Table 43. […] Using various commercially available oils and glycerol, the <Evaluation of moisture retention upon single application> described above was conducted to ascertain the moisture retention effect. […] The glycerol of Comparative Example 21 is a typical aqueous moisturizer, and is widely used as a moisturizer. […] With the exception of changing the removal solvent from hexane to water, the evaluation conditions were the same as those described above in the <Evaluation of moisture retention upon single application>.

[3] = single application of commercially available oil or glycerol to skin, measured after removal (hexane swab; water swab for glycerol)
[4] = single application of commercially available oil or glycerol, class from moisture retention effect value
[5] = esterified product applied neat, 40 μL on 3 cm x 3 cm forearm region, wiped off with hexane after 60 minutes, measured 30 minutes later, average of five panelists
[6] = esterified product applied neat, 40 μL on forearm, wiped off with hexane after 60 minutes, measured 30 minutes later, five panelists

OCC(O)CO [Comparative Example 21, glycerol]
increase in the electrical conductivity that corresponds with the moisture retention effect value [1]: 477 μS | Moisture retention effect value ([2]; removal after 60 minutes with cotton swab immersed in water rather than hexane, measured 30 minutes later): 8 μS | Moisture retention effect value [2, 3]: 8 μS | Moisture retention evaluation result [2, 4]: e1 (less than 40)

caprate ester of ditrimethylolpropane [Example 3]
Moisture retention effect value [2, 5]: 70 μS | Moisture retention evaluation result [2, 6]: a1 (70 or greater)

CC(C)CCCCCCCCCCCCCCC(=O)OCC(C)C [Comparative Example 9, isobutyl isostearate]
Moisture retention effect value [2, 5]: 47 μS

CCCCC(CC)C(=O)OCC(COC(=O)C(CC)CCCC)OC(=O)C(CC)CCCC (centres unmarked) [Comparative Example 14, glyceryl tri(2-ethylhexanoate)]
Moisture retention effect value [2, 3]: 32 μS | Moisture retention evaluation result [2, 4]: e1 (less than 40)

caprylate ester of ditrimethylolpropane [Example 2]
Moisture retention effect value [2, 5]: 87 μS | Moisture retention evaluation result [2, 6]: a1 (70 or greater)

Source: US11752077B2, “Oily moisturizer and topical skin composition containing same” (The Nisshin OilliO Group, Ltd., priority 2017, dated 2023)
